From PubChem BioAssay AID1648 (Sanford-Burnham Center for Chemical Genomics, 2009) come the findings set out here.

Active and inactive are the calls of the source. How the calls were made is not given here.

Usually Kd stands for the constant that tells how readily two partners part at equilibrium.

In the assay the target is Serine/threonine-protein kinase mTOR (Homo sapiens) (UniProt P42345). Nature of the assay: mTOR FRB domain ligand binding – biophysical, NMR (AID 1648). The note with it: NMR binding to FRB domain, chemical shift.
Sequence of Serine/threonine-protein kinase mTOR (Homo sapiens) (P42345 2015-2114): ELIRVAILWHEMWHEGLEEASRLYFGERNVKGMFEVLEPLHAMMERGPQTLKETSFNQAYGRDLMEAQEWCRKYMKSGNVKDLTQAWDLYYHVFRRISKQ
Regarding `NC(=O)CCn1cnc2ccccc21`, the Kd is > 4 mM (inactive).

Take `CC(C)c1c(O)ccc2c1CCC1[C@@](C)(CO)CCC[C@]21C` (stereo partly drawn): the Kd was > 4 mM (inactive). The same measure for `Cc1cccc(N2C(=O)CC(=O)NC2=O)c1`: > 4 mM (inactive); for `NC(=O)Cn1cnc2ccccc21`: > 4 mM (inactive); for `Cc1cc(C(=O)N2CCN(c3ccccn3)CC2)c(C)o1`: > 4 mM (inactive). The same measure for `O=C1C=CC(=O)N1c1ccccc1O`: > 4 mM (inactive); for `Cc1ccc(-c2cc(C(=O)N3CCCC3)no2)cc1`: > 4 mM (inactive); for `CN=C1SC(CC(=O)Nc2ccc(O)cc2)C(=O)N1C` (stereo not drawn): > 4 mM (inactive). Turning to `O=C(O)c1cccc(-n2cccc2)c1`, the Kd is > 4 mM (inactive). The same measure for `NCc1ccccc1N1CCOCC1`: > 4 mM (inactive); for `CCCn1cnn2c(=O)cc(C)nc12`: > 4 mM (inactive); for `OC1COCc2nc3ccccc3n2C1` (stereo not drawn): > 4 mM (inactive). The same measure for `COc1cc2cc[n+]3cc4c(OC)c(OC)ccc4cc3c2cc1OC`: > 4 mM (inactive); for `O=C1CSC(=O)N1CN1CCOCC1`: > 4 mM (inactive); for `Cc1cc(O)c(NC(=O)c2ccco2)cc1C`: > 4 mM (inactive). The same measure for `N[C@@H](Cc1cc(I)c(Oc2cc(I)c(O)c(I)c2)c(I)c1)C(=O)O`: > 4 mM (inactive). As for `OC[C@H]1O[C@@H](Oc2ccc(O)cc2)[C@H](O)[C@@H](O)[C@@H]1O`, the Kd was > 4 mM (inactive).

With `O=C(NC1=NCCS1)c1ccc(Cl)s1`, the Kd was > 4 mM (inactive). The same measure for `Cc1cc(-c2ccc(Cl)cc2)n2nc(N)nc2n1`: > 4 mM (inactive); for `CC(C)c1ccc2c(c1)CCC1C(C)(C(N)=O)CCCC21C` (stereo not drawn): > 4 mM (inactive); for `COc1ccc2c(c1)O[C@H]1c3ccc(OC)cc3OC[C@@H]21`: > 4 mM (inactive).

Consider `O=C1CCC(C(=O)NCc2cccnc2)N1` (stereo not drawn), for which the Kd is > 4 mM (inactive). The same measure for `CCCCCCCCCCCCCCCCCCOCC(O)CO` (stereo not drawn): > 4 mM (inactive); for `CCc1nnc(NC(C)=O)s1`: > 4 mM (inactive). The same measure for `CC(C)=CC1C(CO)C1(C)C` (stereo not drawn): > 4 mM (inactive). The same measure for `O=C(Nc1cccc2ncccc12)c1cccnc1`: > 4 mM (inactive). Consider `Cc1cc(C(F)(F)F)n2nc(C(=O)O)c(Cl)c2n1`, for which the Kd was > 4 mM (inactive). The same measure for `Cc1cc(OC(=O)c2c(C)cc(O)cc2O)cc(O)c1C(=O)O`: > 4 mM (inactive).

As to `COc1ccc(C)cc1S(N)(=O)=O`, the Kd is > 4 mM (inactive). The same measure for `Nc1ccc(NC(=O)c2ccco2)c(Cl)c1`: > 4 mM (inactive).

On to `OCc1ccc(-c2ccccn2)s1`, for which the Kd is > 4 mM (inactive). As to `Fc1ccc(NC2=NCCS2)cc1Cl`, the Kd was > 4 mM (inactive).

Consider `COC(=O)c1cc2ccccc2cn1`, for which the Kd was > 4 mM (inactive).

In the case of `O=C(CSc1ccnc(=O)[nH]1)NCc1ccco1`, the Kd was > 4 mM (inactive).

`S=c1[nH]c2cccnc2[nH]1`: the Kd was > 4 mM (inactive). The same measure for `CN1CN(Cc2ccccc2)CN/C1=N/[N+](=O)[O-]`: > 4 mM (inactive); for `NCc1cccc(-n2cccc2)c1`: > 4 mM (inactive). As for `NC(=O)CSc1ccc(-c2ccccc2)nn1`, the Kd was > 4 mM (inactive). Regarding `O=C(O)C1COc2ccccc2O1` (stereo not drawn), the Kd was > 4 mM (inactive).

For the compound `O=C1COc2ccc(C(=O)c3ccccc3)cc2CN1`, the Kd is > 4 mM (inactive).

Take `Cc1cc(C)n(-c2nncn2N)n1`: the Kd is > 4 mM (inactive). With `Fc1ccc2onc(C3CCNCC3)c2c1`, the Kd is > 4 mM (inactive). As to `O=C(O)CCC(=O)c1cccc2ccccc12`, the Kd was > 4 mM (inactive). The same measure for `COc1cc2c(cc1OC)C1(O)C(=O)c3ccc(O)c(C(=O)O)c3OC1CO2` (stereo not drawn): > 4 mM (inactive); for `COc1cc2c(cc1O)CCNC2C` (stereo not drawn): > 4 mM (inactive); for `CS(=O)(=O)c1ccccc1C(=O)Nc1nccs1`: > 4 mM (inactive).

As to `COc1ccccc1NC(=O)C1CCCCC1`, the Kd was > 4 mM (inactive). The same measure for `O=C1NC(=S)NC(=O)C1=Cc1ccncc1`: > 4 mM (inactive). On to `O=C1NC(=S)N/C1=C\c1ccccc1F`, for which the Kd is > 4 mM (inactive). The same measure for `Nc1ccc2[nH]ccc2c1`: > 4 mM (inactive); for `N#Cc1nc(-c2cccs2)oc1N1CCOCC1`: > 4 mM (inactive). The same measure for `C[C@@H]1O[C@@H](O[C@H]2C[C@@H](O)[C@]3(CO)C4C(CC[C@]3(O)C2)[C@@]2(O)CC[C@H](C3=CC(=O)OC3)[C@@]2(C)C[C@H]4O)[C@H](O)[C@H](O)[C@H]1O` (stereo partly drawn): > 4 mM (inactive). With `NC(=O)CN1C(=O)c2cccc3cccc1c23`, the Kd is > 4 mM (inactive).

Turning to `CC(=O)Nc1c(Cl)cnn(-c2ccccc2)c1=O`, the Kd was > 4 mM (inactive). As for `O=c1ccn([C@@H]2O[C@H](COP(=O)(O)OP(=O)(O)OP(=O)(O)O)[C@@H](O)[C@H]2O)c(=O)[nH]1`, the Kd was > 4 mM (inactive). The same measure for `CNC(=O)c1cc(C)c(-c2ccccc2)s1`: > 4 mM (inactive); for `Cc1cc(C)nc(/N=C(/N)N2CCN(C)CC2)n1`: > 4 mM (inactive). The same measure for `CC(=O)Nc1ccc(C(=O)NC2CCSC2=O)cc1` (stereo not drawn): > 4 mM (inactive); for `CC(=O)c1cccc(NC(=O)C=C(C)C)c1`: > 4 mM (inactive); for `O=c1cc(-c2ccc(O)cc2)[nH]c(=S)[nH]1`: > 4 mM (inactive). The same measure for `Cc1nnc(SCC(=O)N2CCCCC2)s1`: > 4 mM (inactive); for `NC(=O)CN=Cc1c(O)[nH]c2ccccc12`: > 4 mM (inactive); for `Nc1cccc(C(=O)Nc2ccc(N)cc2Cl)c1`: > 4 mM (inactive). In the case of `CC(=O)Nc1cccc(N2C(=O)CCC2=O)c1`, the Kd was > 4 mM (inactive).

Take `Nc1oncc1-c1ccccn1`: the Kd is > 4 mM (inactive). Turning to `CSc1nnnn1-c1cccc(O)c1`, the Kd was > 4 mM (inactive). The same measure for `O=C1CCC(=O)N1c1ccc(F)cc1`: > 4 mM (inactive); for `Cc1ccc(-n2nnnc2SCC(N)=O)c(C)c1`: > 4 mM (inactive). For `O=C(Nc1nnc(-c2cccnc2)o1)c1ccccc1F`, the Kd is > 4 mM (inactive). In the case of `Nc1cccc(S(=O)(=O)N2CCOCC2)c1`, the Kd is > 4 mM (inactive).

Turning to `CCOC(=O)c1c(SC)nc(=O)[nH]c1C`, the Kd is > 4 mM (inactive).

Regarding `CN=C(c1ccc([N+](=O)[O-])cc1)N(C)C`, the Kd was > 4 mM (inactive). The same measure for `Cc1cc(C(=O)Nc2sc3c(c2C#N)CCC3)no1`: > 4 mM (inactive). For the compound `O=c1c(Cl)c(NCCO)ncn1-c1ccccc1`, the Kd was > 4 mM (inactive).

For the compound `Cc1ccccc1C(=O)Nn1cnnc1`, the Kd is > 4 mM (inactive). The same measure for `CNS(=O)(=O)c1ccc2[nH]c(=O)[nH]c2c1`: > 4 mM (inactive).

For `NC(C(=O)O)C(O)c1ccccc1` (stereo not drawn), the Kd is > 4 mM (inactive). The same measure for `O=C(O)c1ccnn1-c1ccccc1`: > 4 mM (inactive).

As to `NC(=O)COc1ccccc1O`, the Kd is > 4 mM (inactive). The same measure for `CC1(C)NC(=O)N(CCOc2ccc3c(c2)CCC3)C1=O`: > 4 mM (inactive); for `Cc1[nH]c2ccccc2c1C(=O)CSc1ncn[nH]1`: > 4 mM (inactive); for `CCOC(=O)CC1Sc2ccccc2NC1=O` (stereo not drawn): > 4 mM (inactive). `Cc1cc(O)cc(=O)o1`: the Kd is > 4 mM (inactive). The same measure for `O=C1CSC2=NCCCN12`: > 4 mM (inactive); for `COc1ncccc1N`: > 4 mM (inactive). The same measure for `CSc1nnc2c(n1)OC=Nc1ccccc1-2`: > 4 mM (inactive). The same measure for `O=C(O)CC1Sc2ccccc2NC1=O` (stereo not drawn): > 4 mM (inactive).

On to `COc1cc(OC)c(OC)cc1C=O`, for which the Kd was > 4 mM (inactive). The same measure for `COc1ccc2c(c1)OC[C@@H](Cc1ccc(OC)c(OC)c1)[C@@H]2O`: > 4 mM (inactive); for `c1ccc(-c2noc(-c3ccco3)n2)nc1`: > 4 mM (inactive); for `COc1ccc(/C=C/c2cc(O)cc(O)c2)cc1`: > 4 mM (inactive). The same measure for `CC1(C)Cc2cccc(CO)c2O1`: > 4 mM (inactive); for `NC(=O)C1CCN(C(=S)c2ccccc2)CC1`: > 4 mM (inactive); for `c1ccc2c(c1)[nH]c1cnccc12`: > 4 mM (inactive). The same measure for `Cc1ccccc1NC(=O)CSc1ccnc(=O)[nH]1`: > 4 mM (inactive). Take `CCOC(=O)C1CCN(Cc2ccccc2)CC1=O` (stereo not drawn): the Kd is > 4 mM (inactive).

As to `O=S(=O)(Nc1ccc2c(c1)OCCO2)c1cccs1`, the Kd is > 4 mM (inactive). For the compound `Cc1nc(NCc2ccco2)nc2c1C(=O)CC(C)C2` (stereo not drawn), the Kd is > 4 mM (inactive). The same measure for `O=C(Nc1nnc(C(F)(F)F)s1)c1cccnc1`: > 4 mM (inactive); for `CCn1nccc1C(=O)Nc1ccc(Cl)cc1Cl`: > 4 mM (inactive).

`Cc1onc(-c2ccccc2)c1CN`: the Kd was > 4 mM (inactive). As to `c1ccc(-c2nc3ccccc3nc2-c2ccccn2)nc1`, the Kd is > 4 mM (inactive). The same measure for `C=C1CCC2C(CC2(C)C)C(=O)CCC1O` (stereo not drawn): > 4 mM (inactive); for `Cn1c(=O)c2c(ncn2CCN)n(C)c1=O`: > 4 mM (inactive); for `CC(=O)Nc1sc(C)c(C)c1C(N)=O`: > 4 mM (inactive). The same measure for `CC(C)=CCc1c(O)cc(C)oc1=O`: > 4 mM (inactive). The same measure for `Cc1cc(C(=O)N2CCCCCC2)cs1`: > 4 mM (inactive); for `Nc1c2c3c(sc2nc(=O)n1N)CCCC3`: > 4 mM (inactive).
